One compound from patent US20250025451A1, “TREATMENT OF CANCER WITH KDM4 INHIBITORS” (Celgene Corporation, priority 2021, published 2025) can be followed below.

By IC50 is commonly meant the concentration that gives 50% inhibition. Higher therefore signals weaker potency.

Assay [1] has as its system tumor initiating cells of SU60 xenograft tumors. The assay is described as follows: functional in vivo tumorigenicity assay (limiting dilution assay). Details: species or system mice. The protocol: The ability of Compound 1 to affect tumorigenic potential was analyzed by flow cytometry analysis of the tumorigenic cell population and functional in vivo tumorigenicity assay (limiting dilution assay).
To assess the effect of Compound 1 on tumorigenic cell population, Compound 1 was used to treat SU60 xenograft tumors. NSG female mice engrafted with SU60 cells (7 mice each group) were administered Compound 1 at 40 mg/kg PO QD×21. The day after the last dose, three tumors nearest to the mean size from each group were dissociated and the single cells were used to perform: 1) flow cytometry analysis of the tumorigenic cell population and 2) functional in vivo tumorigenicity assay (limiting dilution assay). Flow Cytometry Analysis of Tumorigenic Cell Population after Compound 1 Treatment
To study the effect of Compound 1 on tumor initiating cell (TIC) frequency in CRC tumors, we evaluated the tumorigenic potential of SU60 xenograft cells posttreatment with Compound 1 or vehicle. At the end of dosing, SU60 dissociated cells from three animals per group nearest to the mean size were injected in a limiting dilution manner into recipient NSG mice and tumor volumes were measured. The number of cells required for tumor formation was reduced in the Compound 1-treated group. The reduction in TIC frequency was 4.4-fold (FIG. 17 and Table 10). Differentiation of progenitor cells is a potential explanation for this reduction.

Assay [2] deals with PA0143F patient-derived pancreatic cancer organoid model. The assay is described as follows: organoid colony formation assay, PA0143F. The format is cell-based, human. As to the method: (§1) The IC50 values for Compound 1 inhibition of colony formation and viability were determined for the patient-derived colon cancer organoid models: SU60, T002C, SU62, SU34, SU103, T03SC, and SU106, patient-derived pancreatic cancer organoid models PA016SF, PA0143F, T016P, and T028P, and a patient-derived breast cancer organoid model FS5S3.
(§2) Colony formation and viability assays were performed in multiwell plates seeded with organoids using an in vitro culture system composed of a Matrigel layer, media containing a defined set of growth factors, and co-culture with Wnt3 A-secreting mouse embryonic fibroblasts. Assays were initiated by adding either DMSO as a negative control, or an inhibitor panobinostatat 100×IC50 concentration as a positive control, or serially diluted Compound 1. The cultures were incubated for 168 or 144 hours after which the number of viable organoids in each test well was assessed respectively using one of two detection methods: CTG or staining with calcein-AM followed by imaging and colony counting. Colony count or viability of cells treated with compound 1 was expressed as a percent of the negative control. Aggregated Percent of Control values were plotted against the corresponding Compound 1 concentration and the absolute IC50 value was determined from a non-linear regression curve as the concentration where inhibition was 50% of the control.

Assay [3] deals with IMR-90. Nature of the assay: cell-proliferation assay (BrdU, CTG), IMR-90 normal fibroblast. The format is cell-based. The settings on record: IMR-90, (normal) human fetal lung fibroblast, 168 hours. The protocol: Compound 1 was evaluated in in vitro cell-proliferation assays (BrdU assay, MTS assay, or Cell Titer Glo (CTG) assay) in multiple cancer cell lines and patient-derived organoid models to determine half-maximal inhibitory concentrations (IC50s).
Viability and BrdU thymidine incorporation assays were performed in multiwell plates seeded with cells in growth medium. After seeding, multiwell plates were cultured for 24 hours in a humidified incubator at 37° C. to promote adherence. […] The cultures were incubated for 168 hours after which the number of viable cells or the amount of thymidine incorporation in each test well was assessed by the methods as indicated above. Readouts were performed using an EnVision® Multilabel Reader (PerkinElmer, Waltham, MA) and the results were expressed as a percent of the negative control. Percent of Control values were plotted against the corresponding Compound 1 concentration and the relative IC50 value was determined from a non-linear regression curve as the concentration where inhibition was half-maximal. For cell lines where the number of IC50 determinations exceeded one, the IC50 was expressed as the mean IC50±SD.
Half-maximal inhibitory concentration (IC50) values for Compound 1 inhibition of cell proliferation were determined for nine cancer cell lines and one normal human fibroblastcell line.

For assay [4], the system named is PNUTS mRNA. Nature of the assay: inhibition of PNUTS gene expression by qPCR in MDA-MB-231 cells. Type of assay: cell-based. The settings on record: Homo sapiens, 24 hours. The protocol: In a study of the inhibitory effects of Compound 1 on the gene expression of PNUTS, MDA-MB-231 cells were treated for 24 hours and expression levels of PNUTS mRNA in response to Compound 1 treatment were measured by qPCR. The inhibition of PNUTS mRNA was quantified by calculating mean percent change in PNUTS gene expression following the Compound 1 treatment relative to the DMSO-treated control and IC50 value was calculated as concentration where inhibition was half-maximal. The IC50 value was 0.007 μM.
Background: Quantitative PCR measures a nucleic acid by following its amplification.

Assay [5] has as its system SU60 patient-derived colon cancer organoid model. The assay is described as follows: organoid colony formation and viability assay, SU60. The format is cell-based, human. The protocol: as §1, §2
The colony formation inhibition assays were performed in multiwell plates seeded with SU60 organoids. The cultures were incubated for 168 hours after which the number of colonies was assessed by staining with calcein AM followed by imaging and colony counting. Colony counts were expressed as a percent of the negative control and aggregated Percent of Control values were plotted against the corresponding Compound 1 concentration. A curve was fitted using non-linear regression.

Assay [6] relates to T016P patient-derived pancreatic cancer organoid model. The assay is described as follows: organoid colony formation assay, T016P. Type of assay: cell-based, human. As to the method: as §1, §2
Where [7] appears, read: SU60 cells from tumors treated 40 mg/kg QD, injected into recipient NSG mice, 50 cells.
Where [8] appears, read: SU60 cells from tumors treated 40 mg/kg QD, injected into recipient NSG mice, 500 cells.
Setting [9] is: SU60 cells from tumors treated 40 mg/kg QD, injected into recipient NSG mice, 1000 cells.

Where only a bound is given, the exact number is not on record here.

As for `CC(C)c1ccc(N(C)c2ccc3c(c2)OCC[C@H]3CNc2cnccc2C(=O)O)cc1` [Compound 1, 3-({[(4R)-7-{methyl[4-(propan-2-yl)phenyl]amino}-3,4-dihydro-2H-1-benzopyran-4-yl]methyl}amino)pyridine-4-carboxylic acid], in assay [1] (setting [7]), the “Mean Tumor Volume (50 cells)” value came to 209 mm^3. Further, the “Tumor Take Rate (50 cells)” value in assay [1] (setting [7]) is 3/10. The “Mean Tumor volume (500 cells)” value in assay [1] (setting [8]) stood at 589 mm^3. Moreover, the “Tumor Take Rate (500 cells)” value in assay [1] (setting [8]) is recorded as 5/10. Moreover, in assay [1] (setting [9]), the “Mean Tumor Volume (1000 cells)” value is reported as 830 mm^3. Also, in assay [1] (setting [9]), the “Tumor Take Rate (1000 cells)” value was 7/10. Also, in assay [1] (SU60 xenograft, 40 mg/kg PO QD x21, vs vehicle), the “reduction in TIC frequency” value was determined as 4.4 fold. Further, the IC50 in assay [2] (Homo sapiens, PA0143F pancreatic carcinoma model) is greater than 10 µM; in assay [2] (PA0143F human pancreatic carcinoma organoid, 144 hrs, Colony Counts), greater than 10 µM; in assay [3], greater than 1 µM; in assay [4] it was 0.007 µM; in assay [5] (Homo sapiens, SU60 colorectal carcinoma model, colony formation and viability assays), less than 0.15 µM; in assay [5] (SU60 human colorectal carcinoma organoid, 144 hrs, Colony Counts), 0.064 µM. The IC50 in assay [5] (SU60 human colorectal carcinoma organoid, 168 hrs, CTG) is 0.023 µM; in assay [6] (Homo sapiens, T016P pancreatic carcinoma model), greater than 10 µM; in assay [6] (T016P human pancreatic carcinoma organoid, 144 hrs, Colony Counts), greater than 10 µM.
